“Also recorded” adds a separate entry of the source. Where two headings read alike, the source gives them in different places.
How the values were obtained:
[1] = tested on: KCNQ1; experiment: in vitro; format: cell-based
[2] = in vitro; details: human
[3] = molecular target: cyclooxygenase 1 (COX1) (Homo sapiens, UniProt P23219); experiment: Off-target screening, COX1; format: biochemical
[4] = tested on: human liver fibroblast; format: cell-based
Description: The results were negative.

[5] = Stability in dog hepatocytes; format: in vitro ADME; details: read-out: Half-life (T1/2) Hepatocytes (Phase I and Phase II metabolism)
[6] = tested on: male CD-1 mice; experiment: Mouse studies with epididymal sperm count as readout; details: 10 mg/kg/day for 4 weeks
[7] = Repeat dose PK (14 days), rat; format: in vivo; details: male, Sprague-Dawley, plasma, oral, Day 14, read-out: AUC0-48
[8] = molecular target: cyclooxygenase 2 (COX2) (Homo sapiens, UniProt P35354); experiment: Off-target screening, COX2; format: biochemical
[9] = Single dose toxicity, mouse; details: male, CD-1, mouse, in vivo, Maximum tolerated dose (MTD), male CD-1 mice, highest dose level tested
[10] = molecular target: cannabinoid receptor 2 (CB2) (Homo sapiens, UniProt P34972); experiment: Off-target screening, CB2; format: cell-based
[11] = in vivo; details: male, Beagle, dog, oral
[12] = Stability in rat hepatocytes; format: in vitro ADME; details: read-out: Half-life (T1/2) Hepatocytes (Phase I and Phase II metabolism) (converted)
[13] = molecular target: monoamine oxidase A (MAO-A) (Homo sapiens, UniProt P21397); experiment: Off-target screening, MAO-A; format: biochemical
[14] = Single dose PK, cynomolgus macaque; format: in vivo
Method: NHP studies: Three young adult male marmosets received a single 5 mg/kg dose of the compound of Example land the compound of 3 sexually mature male cynomolgus macaques received a single dose of 0.5, 1, 5 and 10 mg/kg.

[15] = in vivo; details: male, Sprague-Dawley, rat, oral
[16] = Single dose PK, mouse; format: in vivo
Description: Single dose pharmacokinetics (PK) studies at therapeutic dose levels: Presented are area under the curve (AUC) values to better compare exposure levels between species.
[…]. […] This value serves as the basis to calculate multiples over efficacy across species.

[17] = tested on: male cynomolgus macaques; details: cynomolgus monkey, in vivo
[18] = tested on: 48 potential off-targets; experiment: Off-target screening, agonist and antagonist activity against 48 potential off-targets; details: 10 uM; against 39 of 48 targets (including glucocorticoid and androgen receptors)
[19] = Stability in rabbit liver microsomes; format: in vitro ADME; details: read-out: Half-life (T1/2) Liver microsomes (Phase I metabolism) (converted)
[20] = tested on: male Sprague-Dawley rats; experiment: Testis histopathology after 14-day dosing, rat; format: in vivo; details: male SD rats, daily doses for 14 days (25 mg/kg/day in FIG. 11)
Method: 2 male Beagle dogs and 5 male SD rats were dosed with 25 mg/kg/day for 14 days. On Day 15, animals were euthanized to harvest organs for histopathology. Shown are representative images. See Example 19.

[21] = tested on: HepG2
[22] = Stability in rat liver microsomes; format: in vitro ADME; details: read-out: Half-life (T1/2) Liver microsomes (Phase I metabolism)
[23] = molecular target: cannabinoid receptor 1 (CB1) (Homo sapiens, UniProt P21554); experiment: Off-target screening, CB1; format: cell-based
[24] = Solubility in PBS at pH 7.4; format: physicochemical

cannabinoid receptor 2 (CB2), sequence (P34972 whole entry, species assumed): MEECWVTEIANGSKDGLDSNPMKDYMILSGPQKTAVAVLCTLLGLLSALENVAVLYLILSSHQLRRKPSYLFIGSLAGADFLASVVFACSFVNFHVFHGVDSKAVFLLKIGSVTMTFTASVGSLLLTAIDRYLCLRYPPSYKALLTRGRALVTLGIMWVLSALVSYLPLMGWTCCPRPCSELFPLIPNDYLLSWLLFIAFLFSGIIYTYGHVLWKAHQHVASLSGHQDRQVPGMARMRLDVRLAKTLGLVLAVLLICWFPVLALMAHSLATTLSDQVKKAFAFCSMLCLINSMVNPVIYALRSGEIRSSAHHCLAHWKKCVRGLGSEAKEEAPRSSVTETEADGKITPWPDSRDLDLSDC
monoamine oxidase A (MAO-A), sequence (P21397 whole entry, species assumed): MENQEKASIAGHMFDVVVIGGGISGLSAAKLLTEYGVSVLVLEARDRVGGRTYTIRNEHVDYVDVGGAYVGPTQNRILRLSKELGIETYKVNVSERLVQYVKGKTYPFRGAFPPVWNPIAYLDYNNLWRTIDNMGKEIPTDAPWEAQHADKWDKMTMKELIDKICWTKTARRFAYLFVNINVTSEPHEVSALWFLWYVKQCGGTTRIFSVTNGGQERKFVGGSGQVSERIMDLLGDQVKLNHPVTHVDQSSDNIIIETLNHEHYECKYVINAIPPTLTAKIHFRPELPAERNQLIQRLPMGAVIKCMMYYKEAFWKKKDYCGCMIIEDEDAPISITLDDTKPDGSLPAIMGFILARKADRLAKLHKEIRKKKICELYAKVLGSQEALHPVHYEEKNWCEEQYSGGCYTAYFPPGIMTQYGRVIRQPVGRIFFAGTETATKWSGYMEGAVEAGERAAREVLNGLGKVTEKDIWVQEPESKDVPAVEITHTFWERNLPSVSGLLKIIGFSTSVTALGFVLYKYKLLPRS
cannabinoid receptor 1 (CB1), sequence (P21554 whole entry, species assumed): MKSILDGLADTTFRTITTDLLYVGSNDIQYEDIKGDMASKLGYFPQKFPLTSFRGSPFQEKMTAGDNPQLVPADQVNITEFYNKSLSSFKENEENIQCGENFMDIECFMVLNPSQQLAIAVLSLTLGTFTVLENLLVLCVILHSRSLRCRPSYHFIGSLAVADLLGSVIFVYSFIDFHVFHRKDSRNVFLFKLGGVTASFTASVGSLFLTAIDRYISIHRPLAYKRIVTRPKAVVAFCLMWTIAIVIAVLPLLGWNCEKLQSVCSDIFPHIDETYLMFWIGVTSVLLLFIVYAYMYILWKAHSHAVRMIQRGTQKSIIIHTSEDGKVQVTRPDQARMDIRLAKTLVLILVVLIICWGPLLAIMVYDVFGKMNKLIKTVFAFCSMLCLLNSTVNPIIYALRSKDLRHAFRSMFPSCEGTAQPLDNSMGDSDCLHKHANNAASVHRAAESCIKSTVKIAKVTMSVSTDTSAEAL
cyclooxygenase 1 (COX1), sequence (P23219 24-599, species assumed): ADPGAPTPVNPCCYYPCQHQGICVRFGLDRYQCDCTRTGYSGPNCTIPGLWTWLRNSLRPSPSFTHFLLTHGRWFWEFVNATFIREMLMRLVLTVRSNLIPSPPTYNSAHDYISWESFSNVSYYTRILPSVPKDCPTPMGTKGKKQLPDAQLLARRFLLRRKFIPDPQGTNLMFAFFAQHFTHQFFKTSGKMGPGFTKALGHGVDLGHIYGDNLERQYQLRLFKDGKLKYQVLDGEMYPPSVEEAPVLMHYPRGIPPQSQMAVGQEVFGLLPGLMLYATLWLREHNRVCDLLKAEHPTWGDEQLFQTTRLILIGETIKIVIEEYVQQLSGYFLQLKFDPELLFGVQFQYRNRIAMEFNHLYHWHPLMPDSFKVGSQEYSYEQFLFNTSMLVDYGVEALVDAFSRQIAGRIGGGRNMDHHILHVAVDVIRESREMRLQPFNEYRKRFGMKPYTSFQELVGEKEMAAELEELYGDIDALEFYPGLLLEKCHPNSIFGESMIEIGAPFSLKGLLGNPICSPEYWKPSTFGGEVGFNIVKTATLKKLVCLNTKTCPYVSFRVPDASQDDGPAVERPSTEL
cyclooxygenase 2 (COX2), sequence (P35354 18-604, species assumed): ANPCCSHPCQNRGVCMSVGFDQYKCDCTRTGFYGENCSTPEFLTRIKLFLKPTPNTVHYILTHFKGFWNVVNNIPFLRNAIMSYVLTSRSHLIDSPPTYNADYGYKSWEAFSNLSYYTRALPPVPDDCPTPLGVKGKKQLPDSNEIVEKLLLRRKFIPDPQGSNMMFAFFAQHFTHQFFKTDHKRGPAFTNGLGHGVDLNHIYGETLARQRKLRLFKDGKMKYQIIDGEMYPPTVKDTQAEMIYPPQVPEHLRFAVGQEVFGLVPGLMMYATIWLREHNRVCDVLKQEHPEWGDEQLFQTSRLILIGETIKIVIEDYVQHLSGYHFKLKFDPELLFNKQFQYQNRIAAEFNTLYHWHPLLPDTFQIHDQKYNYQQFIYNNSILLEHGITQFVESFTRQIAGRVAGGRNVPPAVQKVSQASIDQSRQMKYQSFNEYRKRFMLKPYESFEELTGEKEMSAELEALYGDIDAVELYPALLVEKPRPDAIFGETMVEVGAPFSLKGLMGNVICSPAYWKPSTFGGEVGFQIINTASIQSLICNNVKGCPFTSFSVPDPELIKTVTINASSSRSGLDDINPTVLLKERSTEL

With Cc1ccc(C2=CC(C)(C)Oc3ccc(-c4ccc(-c5ccc(C(=O)[O-])cc5)[nH]4)cc32)cc1.[Na+] [Example 1, Sodium 4-(5-(2,2-dimethyl-4-(p-tolyl)-2H-chromen-6-yl)-1H-pyrrol-2-yl)benzoate] the inhibition at 10 µM [1] was 22.8%, the CLint scaled ([2]; microsomes) was 3.05 mL/min/kg and the half-life ([2]; pooled liver microsomes) was 9.5 h. For the same molecule, the IC50 [3] was 1.41 µM, the inhibition at 10 µM ([3]; read-out: Inhibition of COX1) was 78.9% and the “Human liver (lung) fibroblast assay result” value [4] was “negative”. The “Human liver (lung) fibroblast assay result” value ([4]; human) was “The compound of Example 1 showed no cytopathic effects in HepG2 and human”, the half-life [5] was > 10 h and the “Effect on sperm counts and recovery” value ([6]; 2 weeks recovery, 10 mg/kg/day) was “Sperm counts started to increase; also recorded: reversibly reduces sperm counts”. The Epididymal sperm counts ([6]; 24 h after last dose) was 0.51±0.27 ×10^7, the “Reduction of epididymal sperm counts” value ([6]; 24 h after last dose) was 90% and the AUC(0-t) ([7]; Rat 25 mg/kg/day) was 78800 ng·h/mL. For the same molecule, the AUC(0-t) ([7]; Rat 50 mg/kg/day) was 91100 ng·h/mL, the IC50 [8] was 8.51 µM and the inhibition at 10 µM ([8]; read-out: Inhibition of COX2) was 61.8%. The “Half-life (T1/2) Hepatocytes (Phase I and Phase II metabolism)” value (human) was 8.7 h, the “In vitro Clint (μL/min/10^6 cells)” value (human hepatocytes) was 2.65 μL/min/10^6 cells and the “In vitro T1/2” value (human hepatocytes) was 8.706 h. For the same molecule, the MTD [9] was > 1000 mg/kg, the IC50 [10] was 23.3 µM and the inhibition at 10 µM ([10]; 10 μM) was 34.3%. It also gave an MTD at 2 weeks [11] of 25 mg/kg, a half-life [12] of 7.9 h and an IC50 [13] of 24.6 µM. For the same molecule, the inhibition at 10 µM ([13]; 10 μM) was 45.8%, the AUC(0-inf) ([14]; Cyno 1 mg/kg) was 33,394 h * ng * mL^−1 and the AUC(0-inf) ([14]; Cyno 5 mg/kg) was 175,202 h * ng * mL^−1. For the same molecule, the AUC(0-inf) ([14]; Cyno 10 mg/kg) was 293,423 h * ng * mL^−1, the AUC(0-inf) ([14]; male, cynomolgus monkey, plasma, Cyno 0.5 mg/kg, read-out: AUC0-inf) was 23400 ng·h/mL and the MTD at 2 weeks [15] was 50 mg/kg. The AUC0-inf in plasma ([16]; male CD-1 mice, single 10 mg/kg dose) was 6,681 h*(ng/mL), the AUC(0-inf) ([16]; male, CD-1, plasma, Mouse 10 mg/kg, single dose) was 6680 ng·h/mL and the AUC(0-t) ([16]; male, CD-1, plasma, Mouse 10 mg/kg, read-out: AUC0-48) was 6580 ng·h/mL. For the same molecule, the “Repeat dose observations (behaviour, body weight, CBC, clinical chemistry)” value [17] was “behaved normally and had no substantial changes in body weight, CBC parameters or clinical chemistry parameters”, the “Agonist or antagonist activity against off-targets” value [18] was “Example 1 had agonist or antagonist activity of <10% against 39 of them (including” and the half-life [19] was 19.6 h. For the same molecule, the Testis histopathology [20] was “degeneration of the germinal epithelium; also recorded: impairs the germinal epithelium”, the “HepG2 cytotoxicity assay result” value [21] was “negative” and the “HepG2 cytotoxicity assay result” value ([21]; human) was “The compound of Example 1 showed no cytopathic effects in HepG2 and human”. The half-life [22] was > 23.1 h, the IC50 [23] was 1.8 µM and the inhibition at 10 µM ([23]; 10 μM) was 90.5%. For the same molecule, the “solubility” value [24] was 78.57 µM.

From patent US20250276962A1, “CONTRACEPTIVE COMPOUNDS AND METHODS” (Regents of the University of Minnesota, priority 2021, published 2025)
